One assay addresses GLP-1 receptor (Homo sapiens, UniProt P43220). Briefly: HitHunter cAMP assay, GLP-1 receptor. The assay is classed as cell-based. The note with it: CHO cells, cAMP; normalized to maximum signal from GLP-1 (high) and DMSO (low); read-out: Emax GLP-1R. On the technique in general: cAMP levels reflect the balance of adenylyl cyclase and phosphodiesterase activity.
The next assay deals with T1, GIP receptor (Homo sapiens, UniProt P48546).
T1 sequence (P48546 22-466): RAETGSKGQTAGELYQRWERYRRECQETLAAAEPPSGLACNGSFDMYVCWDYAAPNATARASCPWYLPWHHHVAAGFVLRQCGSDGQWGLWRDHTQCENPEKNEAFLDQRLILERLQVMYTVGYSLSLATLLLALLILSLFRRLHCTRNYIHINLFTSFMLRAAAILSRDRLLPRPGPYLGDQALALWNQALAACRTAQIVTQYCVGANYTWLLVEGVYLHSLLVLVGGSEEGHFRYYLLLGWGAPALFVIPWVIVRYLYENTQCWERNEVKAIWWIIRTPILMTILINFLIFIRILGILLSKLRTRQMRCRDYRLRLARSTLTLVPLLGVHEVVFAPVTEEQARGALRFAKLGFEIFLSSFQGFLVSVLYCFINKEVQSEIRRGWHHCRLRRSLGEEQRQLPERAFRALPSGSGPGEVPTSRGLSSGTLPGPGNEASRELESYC
The assay is described as follows: HitHunter cAMP assay, GIP receptor. Format: cell-based. The note with it: CHO cells, cAMP; normalized to maximum signal from GIP (high) and DMSO (low); read-out: Emax GIP-1R.

*1 amine or outer side, *2 acyl side, *3 side chain or, on linkers, in order; H or OH if unused. Where a SMILES comes first, the peptide text is derived from it. Side-chain parts run from the residue outwards. [ ]: non-standard residue; d: D form. The star is where a group is joined. Isobutyryl(2-(3-CN-5-F-Ph)) = CC(C)(C(=O)*)c1cc(F)cc(C#N)c1; C20 diacid = O=C(O)CCCCCCCCCCCCCCCCCCC(=O)*; γGlu = O=C(O)[C@H](CCC(=O)[*:2])N[*:1]; X40 = CC(C)(C(=O)*)n1cc(Cl)cn1; X60 = O=C(C1(c2cccnc2)CCCC1)*; NH(3-MeOPh) = COc1cccc(N*)c1; X24 = O=C(C1(c2cccnc2)CCC1)*; AEEA = NCCOCCOCC(=O)O; Aib = CC(C)(N)C(=O)O; CO = O=C([*:1])[*:2]; GABA = NCCCC(=O)O; βAla = NCCC(=O)O

GLP-1 receptor, sequence (P43220 24-463): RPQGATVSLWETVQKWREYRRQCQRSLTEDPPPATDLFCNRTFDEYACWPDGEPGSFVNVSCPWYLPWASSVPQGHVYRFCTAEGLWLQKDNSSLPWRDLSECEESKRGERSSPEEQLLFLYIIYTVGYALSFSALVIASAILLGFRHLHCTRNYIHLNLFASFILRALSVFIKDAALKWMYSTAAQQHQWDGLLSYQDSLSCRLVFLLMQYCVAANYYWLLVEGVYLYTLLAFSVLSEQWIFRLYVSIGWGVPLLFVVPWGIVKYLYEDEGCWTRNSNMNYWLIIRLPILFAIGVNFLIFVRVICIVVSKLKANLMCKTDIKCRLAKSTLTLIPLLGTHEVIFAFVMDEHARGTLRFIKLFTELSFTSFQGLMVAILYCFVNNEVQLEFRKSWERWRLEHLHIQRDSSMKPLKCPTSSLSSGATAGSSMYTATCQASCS

On to `CC[C@H](C)[C@H](NC(=O)[C@H](CC(C)C)NC(=O)[C@H](Cc1c[nH]c2ccccc12)NC(=O)[C@H](CCC(N)=O)NC(=O)[C@@H](NC(=O)[C@H](Cc1ccccc1)NC(=O)[C@H](C)NC(=O)[C@H](CCCCNC(=O)COCCOCCNC(=O)COCCOCCNC(=O)CC[C@H](NC(=O)CCCCCCCCCCCCCCCCCCC(=O)O)C(=O)O)NC(=O)[C@H](CCC(N)=O)NC(=O)[C@H](C)NC(=O)[C@@H](NC(=O)[C@H](CCCCN)NC(=O)[C@H](CC(=O)O)NC(=O)[C@H](CC(C)C)NC(=O)C(C)(C)NC(=O)[C@@H](NC(=O)[C@H](CO)NC(=O)[C@H](Cc1ccc(O)cc1)NC(=O)[C@H](CC(=O)O)NC(=O)[C@H](CO)NC(=O)[C@@H](NC(=O)[C@H](Cc1ccccc1)NC(=O)[C@@H](NC(=O)CNC(=O)[C@H](CCC(=O)O)NC(=O)CCCNC(=O)CNC(=O)Nc1cccc(OC)c1)[C@@H](C)O)[C@@H](C)O)[C@@H](C)CC)[C@@H](C)CC)C(C)C)C(=O)N[C@@H](C)C(=O)NCC(=O)NCC(=O)N1CCC[C@H]1C(=O)N[C@@H](CO)C(=O)N[C@@H](CO)C(=O)NCC(=O)N[C@@H](C)C(=O)N1CCC[C@H]1C(=O)N1CCC[C@H]1C(=O)N1CCC[C@H]1C(=O)N[C@@H](CO)C(N)=O` [Compound 261] ({NH(3-MeOPh)-CO}-G[GABA]EGTFTSDYSI[Aib]LDKIAQK([AEEA-AEEA-γGlu-C20 diacid])AFVQWLIAGGPSSGAPPPS-NH2; C-terminus assumed), for which the maximal response (Emax) – broadly, the greatest response seen or fitted, relative to the assay's reference – is 106% on GLP-1 receptor and 107% at GIP receptor.
The like results for `CC[C@H](C)[C@H](NC(=O)[C@H](CC(C)C)NC(=O)[C@H](Cc1c[nH]c2ccccc12)NC(=O)[C@H](CCC(N)=O)NC(=O)[C@@H](NC(=O)[C@H](Cc1ccccc1)NC(=O)[C@H](C)NC(=O)[C@H](CCCCNC(=O)COCCOCCNC(=O)COCCOCCNC(=O)CC[C@H](NC(=O)CCCCCCCCCCCCCCCCCCC(=O)O)C(=O)O)NC(=O)[C@H](CCC(N)=O)NC(=O)[C@H](C)NC(=O)[C@@H](NC(=O)[C@H](CCCCN)NC(=O)[C@H](CC(=O)O)NC(=O)[C@H](CC(C)C)NC(=O)C(C)(C)NC(=O)[C@@H](NC(=O)[C@H](CO)NC(=O)[C@H](Cc1ccc(O)cc1)NC(=O)[C@H](CC(=O)O)NC(=O)[C@H](CO)NC(=O)[C@@H](NC(=O)[C@H](Cc1ccccc1)NC(=O)[C@@H](NC(=O)CNC(=O)[C@H](CCC(=O)O)NC(=O)CCNC(=O)C(C)(C)c1cc(F)cc(C#N)c1)[C@@H](C)O)[C@@H](C)O)[C@@H](C)CC)[C@@H](C)CC)C(C)C)C(=O)N[C@@H](C)C(=O)NCC(N)=O` [Compound 229] ({Isobutyryl(2-(3-CN-5-F-Ph))-βAla}-EGTFTSDYSI[Aib]LDKIAQK([AEEA-AEEA-γGlu-C20 diacid])AFVQWLIAG-NH2; N-terminus and C-terminus assumed) were, in that order, 102% and 107%.
For `CC[C@H](C)[C@H](NC(=O)[C@H](CC(C)C)NC(=O)[C@H](Cc1c[nH]c2ccccc12)NC(=O)[C@H](CCC(N)=O)NC(=O)[C@@H](NC(=O)[C@H](Cc1ccccc1)NC(=O)[C@H](C)NC(=O)[C@H](CCCCNC(=O)COCCOCCNC(=O)COCCOCCNC(=O)CC[C@H](NC(=O)CCCCCCCCCCCCCCCCCCC(=O)O)C(=O)O)NC(=O)[C@H](CCC(N)=O)NC(=O)[C@H](C)NC(=O)[C@@H](NC(=O)[C@H](CCCCN)NC(=O)[C@H](CC(=O)O)NC(=O)[C@H](CC(C)C)NC(=O)C(C)(C)NC(=O)[C@@H](NC(=O)[C@H](CO)NC(=O)[C@H](Cc1ccc(O)cc1)NC(=O)[C@H](CC(=O)O)NC(=O)[C@H](CO)NC(=O)[C@@H](NC(=O)[C@H](Cc1ccccc1)NC(=O)[C@@H](NC(=O)CNC(=O)[C@H](CCC(=O)O)NC(=O)CCNC(=O)C1(c2cccnc2)CCCC1)[C@@H](C)O)[C@@H](C)O)[C@@H](C)CC)[C@@H](C)CC)C(C)C)C(=O)N[C@@H](C)C(=O)NCC(=O)NCC(=O)N1CCC[C@H]1C(=O)N[C@@H](CO)C(=O)N[C@@H](CO)C(=O)NCC(=O)N[C@@H](C)C(=O)N1CCC[C@H]1C(=O)N1CCC[C@H]1C(=O)N1CCC[C@H]1C(=O)N[C@@H](CO)C(N)=O` [Compound 256] ({X60-βAla}-EGTFTSDYSI[Aib]LDKIAQK([AEEA-AEEA-γGlu-C20 diacid])AFVQWLIAGGPSSGAPPPS-NH2; C-terminus assumed) the same measures were 98% and 104%.
For `CC[C@H](C)[C@H](NC(=O)[C@H](CC(C)C)NC(=O)[C@H](Cc1c[nH]c2ccccc12)NC(=O)[C@H](CCC(N)=O)NC(=O)[C@@H](NC(=O)[C@H](Cc1ccccc1)NC(=O)[C@H](C)NC(=O)[C@H](CCCCNC(=O)COCCOCCNC(=O)COCCOCCNC(=O)CC[C@H](NC(=O)CCCCCCCCCCCCCCCCCCC(=O)O)C(=O)O)NC(=O)[C@H](CCC(N)=O)NC(=O)[C@H](C)NC(=O)[C@@H](NC(=O)[C@H](CCCCN)NC(=O)[C@H](CC(=O)O)NC(=O)[C@H](CC(C)C)NC(=O)C(C)(C)NC(=O)[C@@H](NC(=O)[C@H](CO)NC(=O)[C@H](Cc1ccc(O)cc1)NC(=O)[C@H](CC(=O)O)NC(=O)[C@H](CO)NC(=O)[C@@H](NC(=O)[C@H](Cc1ccccc1)NC(=O)[C@@H](NC(=O)CNC(=O)[C@H](CCC(=O)O)NC(=O)CCCNC(=O)C(C)(C)n1cc(Cl)cn1)[C@@H](C)O)[C@@H](C)O)[C@@H](C)CC)[C@@H](C)CC)C(C)C)C(=O)N[C@@H](C)C(=O)NCC(=O)NCC(=O)N1CCC[C@H]1C(=O)N[C@@H](CO)C(=O)N[C@@H](CO)C(=O)NCC(=O)N[C@@H](C)C(=O)N1CCC[C@H]1C(=O)N1CCC[C@H]1C(=O)N1CCC[C@H]1C(=O)N[C@@H](CO)C(N)=O` [Compound 248] ({X40-GABA}-EGTFTSDYSI[Aib]LDKIAQK([AEEA-AEEA-γGlu-C20 diacid])AFVQWLIAGGPSSGAPPPS-NH2; C-terminus assumed) the same measures were 90% and 104%.
Consider `CC[C@H](C)[C@H](NC(=O)[C@H](CC(C)C)NC(=O)[C@H](Cc1c[nH]c2ccccc12)NC(=O)[C@H](CCC(N)=O)NC(=O)[C@@H](NC(=O)[C@H](Cc1ccccc1)NC(=O)[C@H](C)NC(=O)[C@H](CCCCNC(=O)COCCOCCNC(=O)COCCOCCNC(=O)CC[C@H](NC(=O)CCCCCCCCCCCCCCCCCCC(=O)O)C(=O)O)NC(=O)[C@H](CCC(N)=O)NC(=O)[C@H](C)NC(=O)[C@@H](NC(=O)[C@H](CCCCN)NC(=O)[C@H](CC(=O)O)NC(=O)[C@H](CC(C)C)NC(=O)C(C)(C)NC(=O)[C@@H](NC(=O)[C@H](CO)NC(=O)[C@H](Cc1ccc(O)cc1)NC(=O)[C@H](CC(=O)O)NC(=O)[C@H](CO)NC(=O)[C@@H](NC(=O)[C@H](Cc1ccccc1)NC(=O)[C@@H](NC(=O)CNC(=O)[C@H](CCC(=O)O)NC(=O)CCNC(=O)C1(c2cccnc2)CCC1)[C@@H](C)O)[C@@H](C)O)[C@@H](C)CC)[C@@H](C)CC)C(C)C)C(=O)N[C@@H](C)C(=O)NCC(=O)NCC(=O)N1CCC[C@H]1C(=O)N[C@@H](CO)C(=O)N[C@@H](CO)C(=O)NCC(=O)N[C@@H](C)C(=O)N1CCC[C@H]1C(=O)N1CCC[C@H]1C(=O)N1CCC[C@H]1C(=O)N[C@@H](CO)C(N)=O` [Compound 255] ({X24-βAla}-EGTFTSDYSI[Aib]LDKIAQK([AEEA-AEEA-γGlu-C20 diacid])AFVQWLIAGGPSSGAPPPS-NH2; C-terminus assumed), for which the Emax on GLP-1 receptor came out at 90%; at GIP receptor, 99%.

The values are drawn from US12281149B2, “Modulators of G-protein coupled receptors” (priority 2021, dated 2025).
